Measured values taken from the supplement of paper PMC10331698.
± gives the standard deviation of the averaged measurements.

How the values were obtained:
Experiment in all cases: level (log10 ratio to DMSO vehicle control); higher = higher biomarker level / cell amount than vehicle control
Conditions in all cases: in DMSO
[1] = compound: C=CC(=O)OCC(F)(F)C(F)(F)C(F)(F)C(F)(F)C(F)(F)C(F)(F)C(F)(F)F [1H,1H-Perfluorooctyl acrylate]
Method: (§1)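 BioMAP Diversity Plus panel of 12 human primary cell co-culture systems (3C, 4H, LPS, SAg, BT, BF4T, BE3C, CASM3C, HDF3CGF, KF3CT, MyoF, Mphg). Compounds were added 1 h before stimulation and left for 24 h (MyoF 48 h; BT 72 h for soluble read-outs or 6 d for IgG). Biomarkers were read by ELISA, cytotoxicity by SRB, PBMC viability and proliferation by Alamar Blue. Each well value was divided by the mean of 8 DMSO control wells on the same plate and log10 transformed; duplicate blinded samples were tested at 4 concentrations.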

[2] = compound: O=S(=O)(O)C(F)(F)C(F)(F)C(F)(F)C(F)(F)C(F)(F)C(F)(F)F [Perfluorohexanesulfonic acid]
Method: as §1

[3] = compound: O=C(O)C(F)(F)C(F)(F)OC(F)(F)F [Perfluoro-3-methoxypropanoic acid]
Method: as §1

[4] = compound: O=C(O)C(F)(F)OC(F)(F)C(F)(F)OC(F)(F)C(=O)O [Perfluoro-3,6-dioxaoctane-1,8-dioic acid]
Method: as §1

[5] = compound: O=C(O)C(F)(F)C(F)(F)C(F)(F)C(F)(F)C(F)(F)C(F)(F)F [Perfluoroheptanoic acid]
Method: as §1

[6] = compound: FC(F)(F)C(F)(F)C(F)(F)C(F)(F)C(F)(F)C(F)(F)I [Perfluoro-1-iodohexane]
Method: as §1

Test System	level (log10) ([1]; 6700 nM)	level (log10) ([1]; 20000 nM)	level (log10) ([1]; 60000 nM)	level (log10) ([2]; 6700 nM)	level (log10) ([2]; 20000 nM)	level (log10) ([2]; 60000 nM)	level (log10) ([3]; 6700 nM)	level (log10) ([3]; 20000 nM)	level (log10) ([3]; 60000 nM)	level (log10) ([4]; 6700 nM)	level (log10) ([4]; 20000 nM)	level (log10) ([4]; 60000 nM)	level (log10) ([5]; 6700 nM)	level (log10) ([5]; 20000 nM)	level (log10) ([5]; 60000 nM)	level (log10) ([6]; 6700 nM)	level (log10) ([6]; 20000 nM)	level (log10) ([6]; 60000 nM)
BE3C:tPA	0.005 ± 0.0028	0.0125 ± 0.00071	0.0605 ± 0.022	-0.0105 ± 0.0064	0.0015 ± 0.0035	0.012 ± 0.0014	-0.007 ± 0.04	-0.0075 ± 0.019	0.004 ± 0.0071	-0.014 ± 0.018	-0.0135 ± 0.0035	-0.0015 ± 0.0021	-0.0205 ± 0.026	-0.0255 ± 0.0078	0.017 ± 0.031	-0.008 ± 0.028	-0.008 ± 0.023	0.0125 ± 0.028
KF3CT:PAI-I	-0.0075 ± 0.00071	-0.01 ± 0.013	-0.0135 ± 0.018	-0.0105 ± 0.012	-0.0325 ± 0.00071	-0.0435 ± 0.0021	-0.0035 ± 0.0021	-0.0045 ± 0.0035	-0.0195 ± 0.026	-0.0145 ± 0.025	-0.0125 ± 0.00071	0.003 ± 0.018	-0.043 ± 0.016	-0.0355 ± 0.012	-0.013 ± 0.068	0.001 ± 0.0014	-0.0005 ± 0.005	0.0055 ± 0.005
lMphg:CXCL8/IL-8	0.0185 ± 0.005	0.029 ± 0.0071	0.0295 ± 0.005	0.029 ± 0.11	0.052 ± 0.088	0.169 ± 0.18	-0.03 ± 0.065	-0.0275 ± 0.025	-0.001 ± 0.044	-0.024 ± 0.027	0 ± 0.068	-0.002 ± 0.085	-0.0125 ± 0.0035	0.032 ± 0.0042	0.18 ± 0.035	-0.0075 ± 0.039	0.0325 ± 0.016	0.0585 ± 0.064
BE3C:PAI-I	-0.0295 ± 0.018	-0.0285 ± 0.028	-0.028 ± 0.03	0.0035 ± 0.00071	-0.003 ± 0.0085	0.001 ± 0.0014	-0.012 ± 0.0057	-0.009 ± 0.018	0.012 ± 0.0014	-0.013 ± 0.0042	-0.0105 ± 0.019	0.0065 ± 0.022	0.007 ± 0.0028	0.027 ± 0.0057	0.042 ± 0.021	-0.0245 ± 0.04	-0.0045 ± 0.025	0.006 ± 0.037
HDF3CGF:Collagen I	-0.0065 ± 0.05	0.0415 ± 0.005	0.0675 ± 0.05	0.0085 ± 0.015	0.0185 ± 0.015	0.0555 ± 0.067	-0.0095 ± 0.07	-0.0085 ± 0.052	0.058 ± 0.025	-0.011 ± 0.068	-0.0135 ± 0.053	0.0405 ± 0.015	-0.036 ± 0.045	-0.009 ± 0.024	0.0395 ± 0.061	-0.0285 ± 0.026	-0.0365 ± 0.0092	-0.045 ± 0.0071
CASM3C:M-CSF	-0.0205 ± 0.032	0.0135 ± 0.00071	-0.0075 ± 0.0021	-0.007 ± 0.028	-0.012 ± 0.014	0.0305 ± 0.00071	-0.001 ± 0.011	-0.001 ± 0.03	0.031 ± 0.0071	0.0205 ± 0.016	-0.0025 ± 0.0035	0.0385 ± 0.011	-0.004 ± 0.028	-0.005 ± 0.028	0.0035 ± 0.049	-0.0125 ± 0.025	0.0055 ± 0.032	0.0085 ± 0.043
CASM3C:CXCL9/MIG	0.001 ± 0.0028	-0.0015 ± 0.011	0.0005 ± 0.0035	0.003 ± 0.0099	0.0045 ± 0.0064	0.012 ± 0.0014	-0.0175 ± 0.0078	0.0065 ± 0.005	0.027 ± 0.024	-0.002 ± 0.0057	-0.011 ± 0.013	0.03 ± 0.047	0.006 ± 0.023	0.015 ± 0.016	0.054 ± 0.051	-0.0015 ± 0.0064	0.002 ± 0.0028	-0.0025 ± 0.036
KF3CT:CXCL10/IP-10	0.0055 ± 0.0035	0 ± 0.0071	-0.003 ± 0.014	-0.006	-0.016 ± 0.0028	-0.022 ± 0.016	0.011 ± 0.023	0.027 ± 0.034	0.03 ± 0.016	0.0045 ± 0.011	0.0095 ± 0.022	0.029 ± 0.0085	-0.003 ± 0.018	0.0125 ± 0.026	0.0155 ± 0.023	0.005 ± 0.0014	0.001 ± 0.0028	0.0065 ± 0.0092
HDF3CGF:CXCL9/MIG	-0.0265 ± 0.0035	-0.029 ± 0.03	-0.0745 ± 0.0078	-0.0195 ± 0.0021	-0.017	0.005 ± 0.042	-0.016 ± 0.016	0.0155 ± 0.019	0.019 ± 0.0014	-0.0185 ± 0.016	0.0135 ± 0.0092	0.0085 ± 0.005	-0.009 ± 0.0071	-0.002 ± 0.021	0.0165 ± 0.0064	0 ± 0.0028	-0.021 ± 0.0057	-0.0325 ± 0.018
